ChEMBL document CHEMBL1909046, “DrugMatrix in vitro pharmacology data”

What was measured:
[1] = molecular target: Cannabinoid receptor 1 (Homo sapiens, UniProt P21554); format: cell membranes, Membrane; settings: chem-1; further: in other assays of this panel Not Active means under 50% inhibition at 10 µM
[2] = molecular target: C-C chemokine receptor type 5 (Homo sapiens, UniProt P51681); format: cell membranes, Membrane; settings: hek293; further: in other assays of this panel Not Active means under 50% inhibition at 10 µM
Chain of C-C chemokine receptor type 5 (P51681 whole entry): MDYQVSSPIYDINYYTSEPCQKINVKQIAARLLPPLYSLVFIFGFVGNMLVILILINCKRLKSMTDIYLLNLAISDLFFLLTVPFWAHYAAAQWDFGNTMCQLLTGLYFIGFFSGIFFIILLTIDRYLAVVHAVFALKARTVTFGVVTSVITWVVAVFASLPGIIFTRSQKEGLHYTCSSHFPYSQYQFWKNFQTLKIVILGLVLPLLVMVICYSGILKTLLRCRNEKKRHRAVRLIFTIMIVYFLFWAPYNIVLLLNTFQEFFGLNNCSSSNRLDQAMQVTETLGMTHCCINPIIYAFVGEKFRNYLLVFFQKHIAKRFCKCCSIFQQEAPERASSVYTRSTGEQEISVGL

[3] = molecular target: D(1A) dopamine receptor (Homo sapiens, UniProt P21728); assay: DRUGMATRIX: Dopamine D1 radioligand binding (ligand: [3H] SCH-23390); format: cell membranes, CHO, Membrane; settings: cho; Not Active = under 50% inhibition at 10 µM
Chain of D(1A) dopamine receptor (P21728 whole entry): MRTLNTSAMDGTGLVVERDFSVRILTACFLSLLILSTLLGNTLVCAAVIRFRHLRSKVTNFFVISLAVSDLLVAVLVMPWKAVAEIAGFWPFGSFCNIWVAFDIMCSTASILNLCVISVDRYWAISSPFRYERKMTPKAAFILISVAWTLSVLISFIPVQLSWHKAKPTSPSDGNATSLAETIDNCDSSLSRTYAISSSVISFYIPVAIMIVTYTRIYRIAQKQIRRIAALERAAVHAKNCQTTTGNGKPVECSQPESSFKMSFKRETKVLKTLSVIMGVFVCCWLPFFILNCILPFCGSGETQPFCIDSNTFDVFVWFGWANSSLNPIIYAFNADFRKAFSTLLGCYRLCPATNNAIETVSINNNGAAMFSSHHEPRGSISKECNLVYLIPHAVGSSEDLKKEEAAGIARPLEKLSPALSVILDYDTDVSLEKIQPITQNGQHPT

[4] = molecular target: T1, 3-hydroxy-3-methylglutaryl-coenzyme A reductase (Homo sapiens, UniProt P04035); set-up: species or system Escherichia coli;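 further: enzyme inhibition assay of HMG-CoA reductase using radiolabeled [14C]HMG-CoA as substrate; in other assays of this panel Not Active means under 50% inhibition at 10 µM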
T1 sequence (P04035 whole entry): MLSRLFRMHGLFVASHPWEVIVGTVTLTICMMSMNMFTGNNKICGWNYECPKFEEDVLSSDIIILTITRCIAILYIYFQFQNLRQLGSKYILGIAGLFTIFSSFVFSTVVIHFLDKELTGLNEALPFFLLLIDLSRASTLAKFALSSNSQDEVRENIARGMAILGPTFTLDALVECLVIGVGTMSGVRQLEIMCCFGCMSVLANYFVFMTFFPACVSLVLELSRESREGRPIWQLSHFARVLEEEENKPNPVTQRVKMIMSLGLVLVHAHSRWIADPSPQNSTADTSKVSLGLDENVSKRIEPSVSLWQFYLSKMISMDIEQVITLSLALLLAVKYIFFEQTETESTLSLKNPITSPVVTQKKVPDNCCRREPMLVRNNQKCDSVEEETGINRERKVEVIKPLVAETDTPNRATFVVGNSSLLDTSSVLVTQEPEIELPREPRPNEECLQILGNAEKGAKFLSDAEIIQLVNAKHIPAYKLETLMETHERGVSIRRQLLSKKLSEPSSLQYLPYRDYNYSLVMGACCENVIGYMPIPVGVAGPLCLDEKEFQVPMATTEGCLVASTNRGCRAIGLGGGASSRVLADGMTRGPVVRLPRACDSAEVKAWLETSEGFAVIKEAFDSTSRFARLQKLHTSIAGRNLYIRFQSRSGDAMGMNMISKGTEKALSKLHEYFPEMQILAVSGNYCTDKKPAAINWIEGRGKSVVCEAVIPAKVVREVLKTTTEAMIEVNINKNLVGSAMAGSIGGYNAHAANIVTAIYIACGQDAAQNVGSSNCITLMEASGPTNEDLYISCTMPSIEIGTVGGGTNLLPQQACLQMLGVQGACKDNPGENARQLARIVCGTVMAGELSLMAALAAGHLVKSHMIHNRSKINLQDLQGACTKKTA

[5] = molecular target: Insulin receptor (Rattus norvegicus, UniProt P15127); format: cell membranes, Wistar, Liver, Membrane; further: in other assays of this panel Not Active means under 50% inhibition at 10 µM
Chain of Insulin receptor (P15127 27-759 limits assumed): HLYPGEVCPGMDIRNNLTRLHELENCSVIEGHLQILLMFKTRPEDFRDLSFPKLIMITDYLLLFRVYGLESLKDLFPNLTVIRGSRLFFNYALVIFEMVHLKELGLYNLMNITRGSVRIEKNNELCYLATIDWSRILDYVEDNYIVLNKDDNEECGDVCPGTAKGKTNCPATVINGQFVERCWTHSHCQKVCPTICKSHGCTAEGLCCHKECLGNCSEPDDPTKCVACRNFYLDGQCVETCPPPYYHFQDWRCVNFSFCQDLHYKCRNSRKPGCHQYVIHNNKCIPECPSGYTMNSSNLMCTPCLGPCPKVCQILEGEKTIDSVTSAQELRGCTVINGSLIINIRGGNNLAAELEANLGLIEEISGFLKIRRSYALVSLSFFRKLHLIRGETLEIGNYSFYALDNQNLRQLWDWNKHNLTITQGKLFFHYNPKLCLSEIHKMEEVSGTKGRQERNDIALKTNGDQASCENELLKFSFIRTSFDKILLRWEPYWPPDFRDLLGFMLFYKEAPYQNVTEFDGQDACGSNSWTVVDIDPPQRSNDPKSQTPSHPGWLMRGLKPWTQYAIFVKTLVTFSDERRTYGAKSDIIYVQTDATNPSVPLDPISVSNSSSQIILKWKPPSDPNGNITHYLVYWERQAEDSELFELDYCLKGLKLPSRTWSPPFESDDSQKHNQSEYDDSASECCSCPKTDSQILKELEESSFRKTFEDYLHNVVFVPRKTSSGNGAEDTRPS
Chain of Insulin receptor (P15127 764-1383 limits assumed): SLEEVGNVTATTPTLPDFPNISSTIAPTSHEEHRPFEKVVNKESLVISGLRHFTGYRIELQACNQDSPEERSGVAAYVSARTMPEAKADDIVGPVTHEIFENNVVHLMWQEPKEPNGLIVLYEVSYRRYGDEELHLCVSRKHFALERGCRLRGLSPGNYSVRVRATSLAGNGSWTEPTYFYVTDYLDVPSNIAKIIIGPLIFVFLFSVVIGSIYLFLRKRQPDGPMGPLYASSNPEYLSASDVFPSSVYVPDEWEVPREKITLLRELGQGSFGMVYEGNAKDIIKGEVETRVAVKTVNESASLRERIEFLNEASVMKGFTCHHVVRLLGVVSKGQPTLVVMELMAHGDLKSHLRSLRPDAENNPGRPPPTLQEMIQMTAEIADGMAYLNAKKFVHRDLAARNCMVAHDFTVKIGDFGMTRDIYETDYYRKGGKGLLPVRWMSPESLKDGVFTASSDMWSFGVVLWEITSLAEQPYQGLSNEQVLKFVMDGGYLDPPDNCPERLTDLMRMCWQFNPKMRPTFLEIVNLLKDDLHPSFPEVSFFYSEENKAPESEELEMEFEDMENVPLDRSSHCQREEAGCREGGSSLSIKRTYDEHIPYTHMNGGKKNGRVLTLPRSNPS

[6] = DRUGMATRIX: Leukotriene, BLT (LTB4) radioligand binding (ligand: [3H]LTB4); format: cell membranes, Membrane; settings: u-937; Not Active = under 50% inhibition at 10 µM
[7] = molecular target: T2, Angiotensin-converting enzyme (Oryctolagus cuniculus, UniProt P12822); format: tissue-based, Lung
T2 sequence (P12822 whole entry): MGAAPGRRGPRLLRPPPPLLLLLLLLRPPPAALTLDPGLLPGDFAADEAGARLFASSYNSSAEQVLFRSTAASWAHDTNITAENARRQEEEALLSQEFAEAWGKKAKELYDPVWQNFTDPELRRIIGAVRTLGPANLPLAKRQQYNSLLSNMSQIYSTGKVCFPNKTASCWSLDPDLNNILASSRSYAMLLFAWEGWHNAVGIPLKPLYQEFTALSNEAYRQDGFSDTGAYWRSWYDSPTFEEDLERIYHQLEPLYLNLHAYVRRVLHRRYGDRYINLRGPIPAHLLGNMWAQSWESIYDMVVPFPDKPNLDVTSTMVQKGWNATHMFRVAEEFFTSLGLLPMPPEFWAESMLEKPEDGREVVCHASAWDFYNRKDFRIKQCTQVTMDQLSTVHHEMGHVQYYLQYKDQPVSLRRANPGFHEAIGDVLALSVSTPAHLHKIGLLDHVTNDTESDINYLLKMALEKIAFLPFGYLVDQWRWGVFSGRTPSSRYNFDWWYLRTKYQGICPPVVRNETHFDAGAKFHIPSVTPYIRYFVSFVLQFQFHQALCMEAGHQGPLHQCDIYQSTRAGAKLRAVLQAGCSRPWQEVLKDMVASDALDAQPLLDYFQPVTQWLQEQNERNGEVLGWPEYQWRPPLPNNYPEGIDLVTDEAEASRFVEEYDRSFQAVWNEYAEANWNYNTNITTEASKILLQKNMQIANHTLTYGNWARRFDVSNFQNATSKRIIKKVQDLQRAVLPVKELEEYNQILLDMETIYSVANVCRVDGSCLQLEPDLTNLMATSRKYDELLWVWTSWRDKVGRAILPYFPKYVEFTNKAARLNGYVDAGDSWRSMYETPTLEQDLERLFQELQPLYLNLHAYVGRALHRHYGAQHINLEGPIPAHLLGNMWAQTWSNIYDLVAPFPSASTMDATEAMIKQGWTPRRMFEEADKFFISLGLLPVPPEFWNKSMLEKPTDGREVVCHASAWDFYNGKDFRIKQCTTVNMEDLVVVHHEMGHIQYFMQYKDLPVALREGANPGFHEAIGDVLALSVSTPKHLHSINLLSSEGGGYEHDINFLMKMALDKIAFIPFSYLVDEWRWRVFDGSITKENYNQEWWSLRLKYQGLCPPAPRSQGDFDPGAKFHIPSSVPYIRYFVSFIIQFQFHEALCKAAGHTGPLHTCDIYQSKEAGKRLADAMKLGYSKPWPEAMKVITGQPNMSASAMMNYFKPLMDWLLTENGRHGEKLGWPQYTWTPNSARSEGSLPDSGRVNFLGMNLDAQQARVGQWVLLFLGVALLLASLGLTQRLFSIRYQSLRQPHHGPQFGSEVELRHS

[8] = molecular target: T3, Interstitial collagenase (Homo sapiens, UniProt P03956); assay: biochemical; format: tissue-based, Rheumatoid synovial fibroblasts
T3 sequence (P03956 whole entry): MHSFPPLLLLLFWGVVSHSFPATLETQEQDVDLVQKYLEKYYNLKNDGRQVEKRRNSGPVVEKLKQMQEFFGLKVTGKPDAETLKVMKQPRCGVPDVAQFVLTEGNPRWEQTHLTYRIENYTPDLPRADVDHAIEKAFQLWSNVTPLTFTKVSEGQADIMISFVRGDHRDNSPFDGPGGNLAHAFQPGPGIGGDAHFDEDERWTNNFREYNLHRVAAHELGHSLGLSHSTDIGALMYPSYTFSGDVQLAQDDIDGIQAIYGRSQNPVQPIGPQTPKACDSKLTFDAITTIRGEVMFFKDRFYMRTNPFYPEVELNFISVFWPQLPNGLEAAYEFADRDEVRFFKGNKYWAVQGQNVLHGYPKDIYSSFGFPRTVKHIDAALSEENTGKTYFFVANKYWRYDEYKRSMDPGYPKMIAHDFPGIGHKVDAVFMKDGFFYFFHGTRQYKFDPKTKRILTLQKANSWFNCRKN

Chain of Cannabinoid receptor 1 (P21554 whole entry): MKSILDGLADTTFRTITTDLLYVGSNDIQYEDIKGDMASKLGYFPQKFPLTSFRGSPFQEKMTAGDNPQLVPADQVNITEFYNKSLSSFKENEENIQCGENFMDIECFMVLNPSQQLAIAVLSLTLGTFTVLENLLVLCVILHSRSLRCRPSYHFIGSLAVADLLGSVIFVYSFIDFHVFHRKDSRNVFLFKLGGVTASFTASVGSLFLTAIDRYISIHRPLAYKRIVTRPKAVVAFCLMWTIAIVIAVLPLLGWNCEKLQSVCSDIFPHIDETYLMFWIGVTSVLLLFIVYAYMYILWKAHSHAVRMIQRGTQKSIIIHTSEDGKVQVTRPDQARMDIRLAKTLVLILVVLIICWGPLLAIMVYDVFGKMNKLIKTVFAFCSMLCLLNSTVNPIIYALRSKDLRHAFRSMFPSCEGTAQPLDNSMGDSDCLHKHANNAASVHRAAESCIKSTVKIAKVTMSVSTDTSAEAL

Nc1c2c(nc3ccccc13)CCCC2 [TACRINE]
Not Active: IC50 [1] | IC50 [2] | IC50 [3] | IC50 [4] | IC50 [5] | IC50 [6] | Ki [6] | IC50 [7] | IC50 [8]

Nc1nc2nc[nH]c2c(=S)[nH]1 [THIOGUANINE]
Not Active: IC50 [1] | IC50 [2] | IC50 [3] | IC50 [4] | IC50 [5] | IC50 [6] | Ki [6] | IC50 [7] | IC50 [8]

Cc1cccc(N(C)C(=S)Oc2ccc3ccccc3c2)c1 [TOLNAFTATE]
Not Active: IC50 [1] | IC50 [2] | IC50 [3] | IC50 [4] | IC50 [5] | IC50 [6] | Ki [6] | IC50 [7] | IC50 [8]

NC[C@H]1CC[C@H](C(=O)O)CC1 [TRANEXAMIC ACID]
Not Active: IC50 [1] | IC50 [2] | IC50 [3] | IC50 [4] | IC50 [5] | IC50 [6] | Ki [6] | IC50 [7] | IC50 [8]

CC1(C)O[C@@H]2C[C@H]3[C@@H]4CCC5=CC(=O)C=C[C@]5(C)[C@@]4(F)[C@@H](O)C[C@]3(C)[C@]2(C(=O)CO)O1 [TRIAMCINOLONE ACETONIDE]
Not Active: IC50 [1] | IC50 [2] | IC50 [3] | IC50 [4] | IC50 [5] | IC50 [6] | Ki [6] | IC50 [7] | IC50 [8]

NS(=O)(=O)c1cc2c(cc1Cl)NC(C(Cl)Cl)NS2(=O)=O (stereo unspecified) [TRICHLORMETHIAZIDE]
Not Active: IC50 [1] | IC50 [2] | IC50 [3] | IC50 [4] | IC50 [5] | IC50 [6] | Ki [6] | IC50 [7] | IC50 [8]

Cc1c(C)c2c(c(C)c1O)CCC(C)(COc1ccc(CC3SC(=O)NC3=O)cc1)O2 (stereo unspecified) [TROGLITAZONE]
Not Active: IC50 [1] | IC50 [2] | IC50 [3] | IC50 [4] | IC50 [5] | IC50 [6] | Ki [6] | IC50 [7] | IC50 [8]

N[C@@H]1[C@H]2CN(c3nc4c(cc3F)c(=O)c(C(=O)O)cn4-c3ccc(F)cc3F)C[C@@H]12 [TROVAFLOXACIN]
Not Active: IC50 [1] | IC50 [2] | IC50 [3] | IC50 [4] | IC50 [5] | IC50 [6] | Ki [6] | IC50 [7] | IC50 [8]

N#CC(C#N)=Cc1ccc(O)c(O)c1 [TYRPHOSTIN 23]
Not Active: IC50 [1] | IC50 [2] | IC50 [3] | IC50 [4] | IC50 [5] | IC50 [6] | Ki [6] | IC50 [7] | IC50 [8]
